One series deals with SARS-CoV-2 PLpro (Severe acute respiratory syndrome coronavirus 2, UniProt P0DTD1). The series can be described thus: SARS-CoV-2 PLpro inhibition assay (enzymatic, LKGG-AMC substrate). To be noted: for Ki: Hanes-Woolf plot; for Ki / inhibition mechanism: kinetic characterization; for IC50: enzymatic assay. It is filed as biochemical.
A short description of series [1]: in vitro. The settings on record: chlorocebus sabaeus.
Series [2] in a line: in vitro. The settings on record: human.
The conditions of series [3]: mouse, microsomes, 0.5 h; cited from earlier work.
For series [4] the following is noted: rat, microsomes, 0.5 h; cited from earlier work.
The subject of another series is PLpro. To be noted: cited from earlier work; for IC50: PLpro.

Values after ≈ are worked out from the molar mass of the structure shown. Values joined by “and” are separate entries in the source; they are usually repeats but may differ in a detail not shown here. Equal values may be shown once. Read-outs that look alike come from different tables or passages of the source. Bounds are passed on as bounds.

For orientation: Ki means a dissociation constant, usually derived from enzyme kinetics or from competition with a known ligand. The low end stands for higher affinity, the high end for lower affinity. The IC50 is the midpoint of a concentration-inhibition curve. For orientation: solubility means the dissolved amount per volume that the medium holds. As to `Cn1ccc(-c2ccc3nccc(N[C@@H]4CCNC4)c3n2)cc1=O` [Compound 1, Cn1ccc(cc1=O)-c1ccc2nccc(NC3CC[NH2+]C3)c2n1], on SARS-CoV-2 PLpro, the inhibition constant (Ki) was 22.4 ± 6.7 µM, the 50% inhibitory concentration (IC50) was 73.6 µM and the inhibition mechanism result is recorded as “competitive”. For the same molecule, the “inhibition test in absence and presence of Triton (aggregation check)” value at SARS-CoV-2 PLpro (with or without 0.01% Triton) is on record as “no significant differences”. In “in vitro [1]”, this molecule gave a CC50 of 23.8 µM. The CC50 in “in vitro [2]” was above 50 µM. In “physchem”, this molecule returned a solubility of 195 µM (≈ 62.7 µg/mL).
Consider `CCN(CCNc1nc2ccccc2[nH]1)Cc1cc(Cl)ccc1O` [Compound 2, CCN(CCNc1nc2ccccc2[nH]1)Cc1cc(ccc1O)Cl], for which half-maximal inhibition against SARS-CoV-2 PLpro (IC50) was put at 102 µM.
In the case of `CCN(CC)Cc1cc(Nc2nc3ccccc3[nH]2)ccc1O` [Compound 3, CCN(CC)Cc1cc(ccc1O)Nc1nc2ccccc2[nH]1], on SARS-CoV-2 PLpro, half-maximal inhibition (IC50) was put at 127 µM.
Consider `NCCNc1nccc2[nH]c(-c3ccc(F)c(F)c3)nc12` [Compound 4, NCCNc1nccc2[nH]c(nc12)-c1ccc(c(c1)F)F], for which the midpoint of inhibition at SARS-CoV-2 PLpro, the IC50, lay at 130 µM.
Still for that read-out and setting: with `O=C1CN(C(=O)CNC(=O)c2ccc3c(c2)B(O)OC3)CCN1` [Compound 5, O[B]1OCc2ccc(cc21)C(=O)NCC(=O)N1CCNC(=O)C1] the figure was 137 µM; with `O=C(NCc1cccc(F)c1)c1ncc2ccccn12` [Compound 6, Fc1cccc(CNC(=O)c2ncc3ccccn23)c1], 194 µM.
On SARS-CoV-2 PLpro, `CN1CCC(Nc2ccnc3ccc(-c4ccc(C(=O)NCCO)nc4)nc23)CC1` [Compound 82, O=C(NCCO)C1=NC=C(C2=NC3=C(N=CC=C3NC4CCN(C)CC4)C=C2)C=C1] had an IC50 of 79.8 ± 20.4 µM. Moreover, the CC50 in the series “in vitro [1]” and in “in vitro [2]” was above 50 µM throughout. Further, the solubility in “physchem” was found to be 200 µM (≈ 81.3 µg/mL).
Molecule `CS(=O)(=O)c1cccc(-c2ccc3nccc(N4CCNCC4)c3n2)c1` [Compound 83, O=S(C1=CC=CC(C2=NC3=C(N=CC=C3N4CCNCC4)C=C2)=C1)(C)=O] displayed a concentration for half-maximal inhibition (IC50) on SARS-CoV-2 PLpro of 54.8 µM. For the same molecule, the CC50 is 43.6 µM in the series “in vitro [1]” and above 50 µM in “in vitro [2]”. This molecule yielded a solubility in the series “physchem” of 180 µM (≈ 66.3 µg/mL). In addition, the “Microsomal stability, % remaining after 30 min” value in series [3] is given as 60.24%; in series [4] it was 50.41%.
For the molecule `CNC(=O)c1ccc(-c2ccc3nccc(NC4CCNCC4)c3n2)cn1` [Compound 84, O=C(NC)C1=NC=C(C2=NC3=C(N=CC=C3NC4CCNCC4)C=C2)C=C1], the half-inhibitory concentration (IC50) on SARS-CoV-2 PLpro worked out at 39.5 ± 4.62 µM. The CC50 in “in vitro [1]” is 47.3 µM; in “in vitro [2]” it was above 50 µM. In “physchem”, the solubility came to 175 µM (≈ 63.4 µg/mL).
Regarding `COc1ccc(-c2ccc3nccc(N[C@@H]4CCNC4)c3n2)cn1` [Compound 85, COC1=NC=C(C2=NC3=C(N=CC=C3N[C@@H]4CCNC4)C=C2)C=C1], the “fold improvement in PLpro activity” value at SARS-CoV-2 PLpro (85 compared with 1) came out at 5 fold. Moreover, at SARS-CoV-2 PLpro, the Ki was 22.9 µM and 20.1 µM; half-maximal inhibition (IC50) was put at 15.1 ± 2.19 µM; the inhibition mechanism entry was “competitive”. Besides, the “inhibition test in absence and presence of CHAPS detergent (aggregation check)” value on SARS-CoV-2 PLpro (with and without 1 mM CHAPS) is listed as “No significant difference”. In “in vitro [1]”, this molecule displayed a CC50 of 7.47 µM. The same molecule showed a CC50 in the series “in vitro [2]” of 26.3 µM. Besides, the solubility in the series “physchem” came out at 190 µM (≈ 61.1 µg/mL). Further, the “Microsomal stability, % remaining after 30 min” value in series [3] is 66.61%. Also, the “Microsomal stability, % remaining after 30 min” value in series [4] is given as 62.68%.
For `Cc1ccc(N)cc1C(=O)N[C@H](C)c1cccc2ccccc12` [GRL0617], the IC50 in the series with PLpro was […].
For `CCn1ccc(-c2cc(-c3cnn(C)c3)cc([C@@H](C)NC(=O)c3cc(OCCN(C)C)ccc3C)c2)n1` [Jun12682], the “protease, deubiquitinase, and deISGylase activity of PLpro” value with PLpro is “inhibited”.
Turning to `S=C(SSC(=S)N1CCOCC1)N1CCOCC1` [RI173], the IC50 with PLpro is 0.2 µM.

Values taken from paper PMC11647681, “Discovery of Non-Covalent Inhibitors for SARS-CoV-2 PLpro: Integrating Virtual Screening, Synthesis, and Experimental Validation” (ACS Medicinal Chemistry Letters, 2024).
